From patent publication EP4273147A1, “SUBSTITUTED SPIROLACTAMS, SALTS THEREOF AND THEIR USE AS HERBICIDALLY ACTIVE SUBSTANCES” (Bayer Aktiengesellschaft, priority 2022, dated 2023)

Tests used:
SETVI [1] = assay: Herbicidal pre-emergence action (Table A5); format: in vivo, Setaria viridis; details: visual grading after ca. 3 weeks
Procedure, shortened: (§1)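 Paired sowings (monocot weed with dicot weed) in potted sandy loam, seeds soil-covered.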

ECHCG [2] = assay: Herbicidal pre-emergence action (Table A2); format: in vivo, Echinochloa crus-galli; details: visual grading after ca. 3 weeks
Procedure, shortened: as §1

AMARE = assay: Herbicidal post-emergence action (Table B11); format: in vivo, Amaranthus retroflexus
Procedure: (§2) Seeds of mono- and dicotyledonous weed plants were placed in plastic pots in sandy loam soil (doubly sown with in each case one species of mono- or dicotyledonous weed plants per pot), covered with soil and cultivated in a greenhouse under controlled growth conditions. 2 to 3 weeks after sowing, the test plants were treated at the one-leaf stage. […] After the test plants had been kept in the greenhouse under optimum growth conditions for about 3 weeks, the activity of the preparations was rated visually in comparison to untreated controls. For example, 100% activity = the plants have died, 0% activity = like control plants.

ALOMY [3] = assay: Herbicidal pre-emergence action (Table A9); format: in vivo, Alopecurus myosuroides; details: application rate 1280 g/ha; visual grading after ca. 3 weeks
Description: (§3) Seeds of mono- and dicotyledonous weed plants were sown in plastic pots (double sowings with one species of mono- and one species of dicotyledonous weed plants per pot), in sandy loam, and covered with soil.

POAAN [4] = assay: Herbicidal pre-emergence action (Table A7); format: in vivo, Poa annua; details: visual grading after ca. 3 weeks
Procedure, shortened: as §1

MATIN [5] = assay: Herbicidal pre-emergence action (Table A4); format: in vivo, Matricaria inodora; details: application rate 1280 g/ha; visual grading after ca. 3 weeks
Procedure, shortened: as §1

MATIN [6] = assay: Herbicidal post-emergence action (Table B6); format: in vivo, Matricaria inodora; details: application rate 320 g/ha; rated visually after about 3 weeks
Procedure: as §2

POAAN [7] = assay: Herbicidal post-emergence action (Table B7); format: in vivo, Poa annua
Procedure, shortened: (§4)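 Each pot held sandy loam sown with a single mono- or dicot weed species, grown under controlled greenhouse conditions. Test plants were sprayed at the one-leaf stage, and after about 3 weeks of further growth the percentage activity relative to untreated plants was rated visually.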

KCHSC = assay: Herbicidal pre-emergence action (Table A10); format: in vivo, Kochia scoparia; details: application rate 1280 g/ha; visual grading after ca. 3 weeks
Procedure, shortened: as §1

ABUTH = assay: Herbicidal pre-emergence action (Table A1); format: in vivo, Abutilon theophrasti; details: application rate 1280 g/ha; visual grading after ca. 3 weeks vs untreated controls (100% = plants have died off, 0% = as control plants)
Description: as §3

ECHCG [8] = assay: Herbicidal post-emergence action (Table B3); format: in vivo, Echinochloa crus-galli; details: application rate 1280 g/ha; rated visually after about 3 weeks
Procedure, shortened: as §4

VERPE = assay: Herbicidal post-emergence action (Table B10); format: in vivo, Veronica persica; details: application rate 1280 g/ha
Procedure: as §2

LOLRI [9] = assay: Herbicidal pre-emergence action (Table A3); format: in vivo, Lolium rigidum; details: visual grading after ca. 3 weeks
Procedure, shortened: as §1

STEME = assay: Herbicidal pre-emergence action (Table A6); format: in vivo, Stellaria media; details: application rate 320 g/ha; visual grading after ca. 3 weeks
Procedure, shortened: as §1

BRSNW [10] = assay: Pre-emergence effects on crop plants (Table D5); format: in vivo, Brassica napus; details: crop plant; application rate 320 g/ha; visual grading after ca. 3 weeks
Description: (§6) Seeds of mono- and dicotyledonous weed plants and crop plants were sown, in plastic or organic planting pots, in sandy loam and covered with soil. The compounds according to the invention, formulated in the form of wettable powders (WP) or as emulsifiable concentrates (EC), were applied to the surface of the covering soil as aqueous suspension or emulsion, with the addition of 0.5% of an additive, at an application rate of 600 1 of water/ha (converted).
(§7) Following treatment, the pots were placed in a greenhouse and kept under optimum growth conditions for the test plants.

VIOTR = assay: Herbicidal pre-emergence action, section C (Table C12); format: in vivo, Viola tricolor; details: application rate 320 g/ha; visual grading after ca. 3 weeks
ALOMY [11] = assay: Herbicidal pre-emergence action, section C (Table C2); format: in vivo, Alopecurus myosuroides; details: application rate 320 g/ha; visual grading after ca. 3 weeks
ECHCG [12] = assay: Herbicidal pre-emergence action, section C (Table C6); format: in vivo, Echinochloa crus-galli; details: application rate 80 g/ha; visual grading after ca. 3 weeks
BRSNW [13] = assay: Post-emergence effects on crop plants (Table F5); format: in vivo, Brassica napus; details: application rate 320 g/ha, crop plant BRSNW
Description: (§5) 2 to 3 weeks after sowing, the test plants were sprayed in the single-leaf stage.

LOLRI [14] = assay: Herbicidal pre-emergence action, section C (Table C7); format: in vivo, Lolium rigidum; details: application rate 320 g/ha; visual grading after ca. 3 weeks
ZEAMX [15] = assay: Post-emergence effects on crop plants (Table F1); format: in vivo, Zea mays; details: crop plant ZEAMX
Description: as §5

ORYZA [16] = assay: Post-emergence effects on crop plants (Table F3); format: in vivo, Oryza sativa; details: application rate 320 g/ha, crop plant ORYZA
Description: as §5

ECHCG [17] = assay: Herbicidal post-emergence action, section E (Table E5); format: in vivo, Echinochloa crus-galli; details: application rate 320 g/ha; assessed visually after ca. 3 weeks
Description: as §5

SETVI [18] = assay: Herbicidal pre-emergence action, section C (Table C10); format: in vivo, Setaria viridis; details: application rate 320 g/ha; visual grading after ca. 3 weeks
TRZAS [19] = assay: Post-emergence effects on crop plants (Table F2); format: in vivo, Triticum aestivum; details: application rate 320 g/ha, crop plant TRZAS
Description: as §5

ORYZA [20] = assay: Pre-emergence effects on crop plants (Table D3); details: crop plant, visual grading after ca. 3 weeks
GLXMA [21] = assay: Pre-emergence effects on crop plants (Table D4); format: in vivo, Glycine max; details: crop plant; application rate 80 g/ha; visual grading after ca. 3 weeks
ZEAMX [22] = assay: Pre-emergence effects on crop plants (Table D1); format: in vivo, Zea mays; details: crop plant; application rate 80 g/ha; visual grading after ca. 3 weeks
TRZAS [23] = assay: Pre-emergence effects on crop plants (Table D2); format: in vivo, Triticum aestivum; details: crop plant; application rate 320 g/ha; visual grading after ca. 3 weeks
Description: as §6, §7

DIGSA [24] = assay: Herbicidal pre-emergence action, section C (Table C5); format: in vivo, Digitaria sanguinalis; details: application rate 320 g/ha; visual grading after ca. 3 weeks
GLXMA [25] = assay: Post-emergence effects on crop plants (Table F4); format: in vivo, Glycine max; details: application rate 320 g/ha, crop plant GLXMA
Description: as §5

DIGSA [26] = assay: Herbicidal pre-emergence action (Table A12); format: in vivo, Digitaria sanguinalis; details: application rate 320 g/ha; visual grading after ca. 3 weeks
Procedure, shortened: as §1

O=C1N(Cc2ccccn2)CCCC12CCCN(Cc1cccc(F)c1F)C2=O (racemic) [I-108]
90%: pre-emergence activity against SETVI (SETVI [1]; application rate 1280 g/ha) | pre-emergence activity against ECHCG (ECHCG [2]; application rate 320 g/ha) | post-emergence activity against AMARE (AMARE; application rate 1280 g/ha) | pre-emergence activity against ALOMY (ALOMY [3]) | pre-emergence activity against POAAN (POAAN [4]; application rate 1280 g/ha) | pre-emergence activity against MATIN (MATIN [5])

O=C1N(Cc2ccccc2Cl)CCCC12CCCN(Cc1ccccc1Cl)C2=O (racemic) [I-030]
100%: pre-emergence activity against SETVI (SETVI [1]; application rate 1280 g/ha)
90%: pre-emergence activity against ECHCG (ECHCG [2]; application rate 320 g/ha) | post-emergence activity against MATIN (MATIN [6]) | post-emergence activity against POAAN (POAAN [7]; application rate 320 g/ha) | pre-emergence activity against POAAN (POAAN [4]; application rate 1280 g/ha)

O=C1N(Cc2cccs2)CCCC12CCCN(Cc1cccc(F)c1F)C2=O (racemic) [I-040]
90%: pre-emergence activity against KCHSC (KCHSC) | pre-emergence activity against ABUTH (ABUTH) | post-emergence activity against ECHCG (ECHCG [8]) | post-emergence activity against VERPE (VERPE) | pre-emergence activity against STEME (STEME) | pre-emergence activity against MATIN (MATIN [5])
100%: pre-emergence activity against SETVI (SETVI [1]; application rate 1280 g/ha) | pre-emergence activity against ECHCG (ECHCG [2]; application rate 1280 g/ha) | post-emergence activity against AMARE (AMARE; application rate 1280 g/ha) | post-emergence activity against POAAN (POAAN [7]; application rate 320 g/ha) | pre-emergence activity against LOLRI (LOLRI [9]; application rate 320 g/ha) | pre-emergence activity against POAAN (POAAN [4]; application rate 320 g/ha)

COc1ccccc1CN1CCCC2(CCCN(Cc3cccc(F)c3F)C2=O)C1=O (racemic) [I-052]
90%: pre-emergence activity against ALOMY (ALOMY [11]) | post-emergence activity against AMARE (AMARE; application rate 320 g/ha) | post-emergence activity against ECHCG (ECHCG [8]) | pre-emergence activity against LOLRI (LOLRI [14])
20%: post-emergence activity against ORYZA (ORYZA [16]) | pre-emergence activity against ORYZA (ORYZA [20]; application rate 80 g/ha) | pre-emergence activity against GLXMA (GLXMA [21])
0%: pre-emergence activity against BRSNW (BRSNW [10]) | post-emergence activity against BRSNW (BRSNW [13]) | post-emergence activity against ZEAMX (ZEAMX [15]; application rate 80 g/ha) | post-emergence activity against TRZAS (TRZAS [19]) | pre-emergence activity against ZEAMX (ZEAMX [22])
80%: pre-emergence activity against VIOTR (VIOTR) | post-emergence activity against ECHCG (ECHCG [17])
100%: pre-emergence activity against SETVI (SETVI [1]; application rate 320 g/ha) | pre-emergence activity against ECHCG (ECHCG [2]; application rate 320 g/ha) | pre-emergence activity against ECHCG (ECHCG [12]) | pre-emergence activity against SETVI (SETVI [18]) | pre-emergence activity against LOLRI (LOLRI [9]; application rate 320 g/ha)

Cc1cccc(CN2CCCC3(CCCN(Cc4cccc(C)c4F)C3=O)C2=O)c1F (racemic) [I-053]
90%: pre-emergence activity against VIOTR (VIOTR) | post-emergence activity against MATIN (MATIN [6]) | post-emergence activity against POAAN (POAAN [7]; application rate 1280 g/ha) | pre-emergence activity against LOLRI (LOLRI [9]; application rate 1280 g/ha)
20%: post-emergence activity against BRSNW (BRSNW [13])
10%: pre-emergence activity against BRSNW (BRSNW [10]) | post-emergence activity against TRZAS (TRZAS [19])
0%: pre-emergence activity against TRZAS (TRZAS [23]) | post-emergence activity against ZEAMX (ZEAMX [15]; application rate 320 g/ha) | post-emergence activity against GLXMA (GLXMA [25]) | post-emergence activity against ORYZA (ORYZA [16]) | pre-emergence activity against ORYZA (ORYZA [20]; application rate 320 g/ha) | pre-emergence activity against ZEAMX (ZEAMX [22])
100%: pre-emergence activity against SETVI (SETVI [1]; application rate 1280 g/ha) | pre-emergence activity against DIGSA (DIGSA [24]) | pre-emergence activity against ECHCG (ECHCG [2]; application rate 1280 g/ha) | pre-emergence activity against SETVI (SETVI [18]) | pre-emergence activity against DIGSA (DIGSA [26]) | pre-emergence activity against POAAN (POAAN [4]; application rate 320 g/ha)

O=C1N(Cc2cccs2)CCCC12CCCN(Cc1ccccc1F)C2=O (racemic) [I-065]
90%: pre-emergence activity against SETVI (SETVI [1]; application rate 320 g/ha) | pre-emergence activity against KCHSC (KCHSC) | pre-emergence activity against ECHCG (ECHCG [2]; application rate 320 g/ha) | post-emergence activity against AMARE (AMARE; application rate 1280 g/ha) | pre-emergence activity against ALOMY (ALOMY [3]) | post-emergence activity against POAAN (POAAN [7]; application rate 1280 g/ha)
100%: pre-emergence activity against LOLRI (LOLRI [9]; application rate 320 g/ha)

COc1c(F)ccc(CN2CCCC3(CCCN(Cc4ccc(F)c(OC)c4F)C3=O)C2=O)c1F (racemic) [I-019]
100%: pre-emergence activity against SETVI (SETVI [1]; application rate 1280 g/ha) | post-emergence activity against AMARE (AMARE; application rate 1280 g/ha) | post-emergence activity against POAAN (POAAN [7]; application rate 1280 g/ha) | pre-emergence activity against STEME (STEME) | pre-emergence activity against POAAN (POAAN [4]; application rate 320 g/ha)
